# Test results from US20260274832A1, “COMPOUNDS AND THEIR USE IN TREATING CANCER” (ASTRAZENECA AB, priority 2023, published 2026).
# Tests used:
# [1] = target: T1, AR (AR-full length) in LNCaP cells (Homo sapiens, UniProt P10275, T878A); assay: LNCaP Androgen Receptor Imaging Assay (immunofluorescence of endogenous nuclear AR); type: cell-based; details: 24 h incubation; for DC50: concentration giving 50% of maximum degradation of AR per curve fit, single experiment or average of two or more; for Dmax: LNCaP, maximum degradation observed, normalized as % of positive control (prior art AR PROTAC at 3 μM)
# T1 construct: the prostate cancer cell line LNCaP (expressing AR-full length); endogenous in cells; host or cells: LNCaP
# Outline: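 Endogenous nuclear AR level was imaged by immunofluorescence after 24 h compound exposure (12-point dose response, 0.3% DMSO, 37° C./5% CO2) in LNCaP cells. Data were expressed as % of a 3 μM prior-art AR PROTAC control and fitted (bell fit where a hook appeared) to give DC50 and maximum degradation Dmax.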
# [2] = target: T2, AR (L702H) in LNCaP cells (Homo sapiens, UniProt P10275, L702H/T878A); assay: LNCaP Androgen Receptor L702H Imaging Assay (LNCaP cells engineered by CRISPR/Cas9); type: cell-based; details: LNCaP cells with AR L702H mutation, 24 h incubation; for DC50: concentration giving 50% of maximum degradation of AR (L702H) per curve fit; for Dmax: LNCaP, maximum degradation observed, normalized as % of positive control
# T2 construct: engineered to introduce the mutation L702H into the AR gene using CRISPR/Cas9; endogenous in cells; host or cells: LNCaP cells edited by CRISPR/Cas9 at the AR gene
# Outline: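 AR (L702H) degradation, expressed as DC50 and Dmax from curve fits normalized to a positive degrader control, was measured by high-content imaging of anti-AR immunofluorescence. The engineered LNCaP line was dosed over 12 concentrations for 24 h, 0.3% DMSO final, before PFA fixation.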
# T1 sequence (P10275 whole entry T878A): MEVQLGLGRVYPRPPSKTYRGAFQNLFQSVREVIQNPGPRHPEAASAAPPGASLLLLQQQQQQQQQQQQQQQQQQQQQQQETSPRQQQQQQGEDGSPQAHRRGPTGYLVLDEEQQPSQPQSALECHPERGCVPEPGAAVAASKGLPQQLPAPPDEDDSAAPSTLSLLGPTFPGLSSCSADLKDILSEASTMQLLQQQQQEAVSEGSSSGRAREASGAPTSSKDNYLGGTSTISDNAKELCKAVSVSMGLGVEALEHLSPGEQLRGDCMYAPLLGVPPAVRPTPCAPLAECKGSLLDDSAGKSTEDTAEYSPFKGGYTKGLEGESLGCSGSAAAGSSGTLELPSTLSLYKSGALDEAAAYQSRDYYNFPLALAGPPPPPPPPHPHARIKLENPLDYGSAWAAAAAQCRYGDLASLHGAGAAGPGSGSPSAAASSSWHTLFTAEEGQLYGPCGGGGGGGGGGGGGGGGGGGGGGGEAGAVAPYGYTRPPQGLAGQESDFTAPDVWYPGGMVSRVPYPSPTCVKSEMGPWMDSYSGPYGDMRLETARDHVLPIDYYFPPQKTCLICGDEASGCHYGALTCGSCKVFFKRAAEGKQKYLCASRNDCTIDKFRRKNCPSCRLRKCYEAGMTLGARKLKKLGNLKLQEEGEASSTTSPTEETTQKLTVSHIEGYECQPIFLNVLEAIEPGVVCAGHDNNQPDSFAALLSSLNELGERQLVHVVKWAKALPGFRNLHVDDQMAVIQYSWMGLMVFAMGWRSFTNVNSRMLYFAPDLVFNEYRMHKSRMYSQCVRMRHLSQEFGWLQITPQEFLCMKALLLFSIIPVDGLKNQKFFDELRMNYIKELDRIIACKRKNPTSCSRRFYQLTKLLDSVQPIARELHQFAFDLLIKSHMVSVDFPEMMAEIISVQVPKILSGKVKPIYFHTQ
# T1 sequence (Q96SW2 whole entry partner): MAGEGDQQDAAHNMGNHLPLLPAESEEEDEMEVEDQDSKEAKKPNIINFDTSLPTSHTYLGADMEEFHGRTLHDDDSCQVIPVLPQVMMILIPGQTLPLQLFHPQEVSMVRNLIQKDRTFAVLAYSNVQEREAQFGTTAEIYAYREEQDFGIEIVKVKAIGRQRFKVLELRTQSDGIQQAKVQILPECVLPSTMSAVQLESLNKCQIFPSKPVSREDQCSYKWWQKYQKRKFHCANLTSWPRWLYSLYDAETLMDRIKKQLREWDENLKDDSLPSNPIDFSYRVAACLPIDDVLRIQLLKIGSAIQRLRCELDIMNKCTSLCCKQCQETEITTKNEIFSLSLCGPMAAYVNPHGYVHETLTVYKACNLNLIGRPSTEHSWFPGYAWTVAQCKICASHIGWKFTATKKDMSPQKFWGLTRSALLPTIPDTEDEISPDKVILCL
# T2 sequence (P10275 whole entry L702H/T878A): as the sequence (P10275 whole entry T878A) above, with L702H counted along it
# T2 sequence (Q96SW2 whole entry partner): as the sequence (Q96SW2 whole entry partner) above
Compound,DC50 [1],Dmax [1],DC50 [2],Dmax [2]
"N#Cc1c[nH]c2c(N3CCC(c4ccc(N5CCC(CN6CCN(c7ccc(C(=O)NC8CCC(=O)NC8=O)c(F)c7)CC6)CC5)cc4)CC3)ccc(F)c12 (stereo not shown) [Example 105, 4-{4-[(1-{4-[1-(3-Cyano-4-fluoro-1H-indol-7-yl)piperidin-4-yl]phenyl}piperidin-4-yl)methyl]piperazin-1-yl}-N-(2,6-dioxopiperidin-3-yl)-2-fluorobenzamide]",61 nM,89%,49 nM,95%
"N#Cc1c[nH]c2c(N3CCC(c4ccc(N5CCC(CN6CCN(c7ccc(C(=O)NC8CCC(=O)NC8=O)c(F)c7)CC6)CC5)cc4)CC3)ccc(Cl)c12 (stereo not shown) [Example 106, 4-{4-[(1-{4-[1-(4-Chloro-3-cyano-1H-indol-7-yl)piperidin-4-yl]phenyl}piperidin-4-yl)methyl]piperazin-1-yl}-N-(2,6-dioxopiperidin-3-yl)-2-fluorobenzamide]",22 nM,97%,50 nM,93%
"COc1cc(N2CCN(CC3CCN(c4ccc(C5CCN(c6ccc(Cl)c7c(C#N)cn(C)c67)CC5)cc4)CC3)CC2)cc2c1C(=O)N(C1CCC(=O)NC1=O)C2 (stereo not shown) [Example 112, 4-chloro-7-(4-{4-[4-({4-[2-(2,6-dioxopiperidin-3-yl)-7-methoxy-1-oxo-2,3-dihydro-1H-isoindol-5-yl]piperazin-1-yl}methyl)piperidin-1-yl]phenyl}piperidin-1-yl)-1-methyl-1H-indole-3-carbonitrile]",> 3000 nM,–,17 nM,87%
"N#Cc1c[nH]c2c(N3CCC(c4cccc(N5CCC(CN6CCN(c7ccc8c(c7)CN(C7CCC(=O)NC7=O)C8=O)CC6)CC5)c4)CC3)ccc(Cl)c12 (stereo not shown) [Example 113, 4-Chloro-7-(4-{3-[4-({4-[2-(2,6-dioxopiperidin-3-yl)-1-oxo-2,3-dihydro-1H-isoindol-5-yl]piperazin-1-yl}methyl)piperidin-1-yl]phenyl}piperidin-1-yl)-1H-indole-3-carbonitrile]",19 nM,92%,36 nM,76%
"Cc1cc2c(N3CCC(=O)NC3=O)cccc2n1C1CCN(CC2CCN(c3ccc([C@@H]4CCCN(c5ccc(Cl)c6c(C#N)c[nH]c56)C4)cc3)CC2)CC1 [Example 114, 4-Chloro-7-[(3S)-3-{4-[4-({4-[4-(2,4-dioxo-1,3-diazinan-1-yl)-2-methyl-1H-indol-1-yl]piperidin-1-yl}methyl)piperidin-1-yl]phenyl}piperidin-1-yl]-1H-indole-3-carbonitrile]",19 nM,101%,31 nM,101%
"N#Cc1c[nH]c2c(N3CCC(c4ccc(N5CC6(CCC(CN7CCN(c8ccc9c(c8)CN(C8CCC(=O)NC8=O)C9=O)CC7)CC6)C5)cc4)CC3)ccc(F)c12 (stereo not shown) [Example 128, 7-(4-{4-[7-({4-[2-(2,6-Dioxopiperidin-3-yl)-1-oxo-2,3-dihydro-1H-isoindol-5-yl]piperazin-1-yl}methyl)-2-azaspiro[3.5]nonan-2-yl]phenyl}piperidin-1-yl)-4-fluoro-1H-indole-3-carbonitrile]",26 nM,102%,61 nM,103%
"N#Cc1c[nH]c2c(N3CCC(c4ccc(N5CC6(CCC(CN7CCN(c8ccc9c(c8)CN(C8CCC(=O)NC8=O)C9=O)CC7)CC6)C5)cc4)CC3)ccc(Cl)c12 (stereo not shown) [Example 129, 4-Chloro-7-(4-{4-[7-({4-[2-(2,6-dioxopiperidin-3-yl)-1-oxo-2,3-dihydro-1H-isoindol-5-yl]piperazin-1-yl}methyl)-2-azaspiro[3.5]nonan-2-yl]phenyl}piperidin-1-yl)-1H-indole-3-carbonitrile]",20 nM,95%,29 nM,99%

# These reach a lower DC50 [1]. Values come first.
DC50 [1],Dmax [1],DC50 [2],Dmax [2],Compound
6 nM,93%,300 nM,107%,"N#Cc1c[nH]c2c(N3CCC(c4ccc(CN5CCN(CC6CCN(c7ccc8c(c7)CN(C7CCC(=O)NC7=O)C8=O)CC6)CC5)cc4)CC3)ccc(F)c12 (stereo not shown) [Example 107, 7-[4-(4-{[4-({1-[2-(2,6-Dioxopiperidin-3-yl)-1-oxo-2,3-dihydro-1H-isoindol-5-yl]piperidin-4-yl}methyl)piperazin-1-yl]methyl}phenyl)piperidin-1-yl]-4-fluoro-1H-indole-3-carbonitrile]"
7 nM,104%,34 nM,102%,"N#Cc1c[nH]c2c(N3CCC(c4ccc(N5CCC(CN6CCC(n7ccc8c(N9CCC(=O)NC9=O)cccc87)CC6)CC5)nc4)CC3)ccc(Cl)c12 [Example 108, 4-Chloro-7-(4-{6-[4-({4-[4-(2,4-dioxo-1,3-diazinan-1-yl)-1H-indol-1-yl]piperidin-1-yl}methyl)piperidin-1-yl]pyridin-3-yl}piperidin-1-yl)-1H-indole-3-carbonitrile]"
5 nM,97%,10 nM,96%,"N#Cc1c[nH]c2c(N3CCC(c4ccc(N5CCC(CN6CCN(c7ccc8c(c7)CN(C7CCC(=O)NC7=O)C8=O)CC6)CC5)nc4)CC3)ccc(Cl)c12 (stereo not shown) [Example 109, 4-Chloro-7-(4-{6-[4-({4-[2-(2,6-dioxopiperidin-3-yl)-1-oxo-2,3-dihydro-1H-isoindol-5-yl]piperazin-1-yl}methyl)piperidin-1-yl]pyridin-3-yl}piperidin-1-yl)-1H-indole-3-carbonitrile]"
6 nM,88%,5 nM,97%,"N#Cc1c[nH]c2c(N3CCC(c4ccc(N5CCC(N6CCN(c7ccc8c(c7)CN(C7CCC(=O)NC7=O)C8=O)CC6)CC5)cc4)CC3)ccc(Cl)c12 (stereo not shown) [Example 110, 4-Chloro-7-{4-[4-(4-{4-[2-(2,6-dioxopiperidin-3-yl)-1-oxo-2,3-dihydro-1H-isoindol-5-yl]piperazin-1-yl}piperidin-1-yl)phenyl]piperidin-1-yl}-1H-indole-3-carbonitrile]"
4 nM,99%,5 nM,106%,"N#Cc1c[nH]c2c(N3CCC(c4ccc(N5CCC(N6CCC(n7ccc8c(N9CCC(=O)NC9=O)cccc87)CC6)CC5)cc4)CC3)ccc(Cl)c12 [Example 111, 4-Chloro-7-[4-(4-{4-[4-(2,4-dioxo-1,3-diazinan-1-yl)-1H-indol-1-yl][1,4′-bipiperidin]-1′-yl}phenyl)piperidin-1-yl]-1H-indole-3-carbonitrile]"
14 nM,95%,18 nM,104%,"Cc1cc2c(N3CCC(=O)NC3=O)cccc2n1C1CCN(CC2CCN(c3ccc(C4CCN(c5ccc(Cl)c6c(C#N)c[nH]c56)CC4)cc3)CC2)CC1 [Example 123, 4-Chloro-7-(4-{4-[4-({4-[4-(2,4-dioxo-1,3-diazinan-1-yl)-2-methyl-1H-indol-1-yl]piperidin-1-yl}methyl)piperidin-1-yl]phenyl}piperidin-1-yl)-1H-indole-3-carbonitrile]"
3 nM,95%,9 nM,93%,"N#Cc1c[nH]c2c(N3CCC(c4cnc(N5CCC(CN6CCN(c7ccc8c(c7)CN(C7CCC(=O)NC7=O)C8=O)CC6)CC5)nc4)CC3)ccc(Cl)c12 (stereo not shown) [Example 124, 4-Chloro-7-(4-{2-[4-({4-[2-(2,6-dioxopiperidin-3-yl)-1-oxo-2,3-dihydro-1H-isoindol-5-yl]piperazin-1-yl}methyl)piperidin-1-yl]pyrimidin-5-yl}piperidin-1-yl)-1H-indole-3-carbonitrile]"
4 nM,102%,9 nM,93%,"N#Cc1c[nH]c2c(N3CCC(c4cnc(N5CCC(CN6CCC(n7ccc8c(N9CCC(=O)NC9=O)cccc87)CC6)CC5)nc4)CC3)ccc(Cl)c12 [Example 125, 4-Chloro-7-(4-{2-[4-({4-[4-(2,4-dioxo-1,3-diazinan-1-yl)-1H-indol-1-yl]piperidin-1-yl}methyl)piperidin-1-yl]pyrimidin-5-yl}piperidin-1-yl)-1H-indole-3-carbonitrile]"
4 nM,98%,2 nM,107%,"N#Cc1c[nH]c2c(N3CCC(c4ccc(N5CCO[C@H](CN6CCN(c7ccc8c(c7)CN(C7CCC(=O)NC7=O)C8=O)CC6)C5)cc4)CC3)ccc(F)c12 (stereo partly drawn) [Example 126, 7-(4-{4-[(2R)-2-({4-[2-(2,6-dioxopiperidin-3-yl)-1-oxo-2,3-dihydro-1H-isoindol-5-yl]piperazin-1-yl}methyl)morpholin-4-yl]phenyl}piperidin-1-yl)-4-fluoro-1H-indole-3-carbonitrile]"
4 nM,100%,4 nM,110%,"N#Cc1c[nH]c2c(N3CCC(c4ccc(N5CCO[C@H](CN6CCN(c7ccc8c(c7)CN(C7CCC(=O)NC7=O)C8=O)CC6)C5)cc4)CC3)ccc(Cl)c12 (stereo partly drawn) [Example 127, 4-Chloro-7-(4-{4-[(2R)-2-({4-[2-(2,6-dioxopiperidin-3-yl)-1-oxo-2,3-dihydro-1H-isoindol-5-yl]piperazin-1-yl}methyl)morpholin-4-yl]phenyl}piperidin-1-yl)-1H-indole-3-carbonitrile]"
